Series [1] has as its system Staphylococcus aureus. Description: Antibacterial activity against methicillin resistant Staphylococcus aureus 18-2. Type of series: functional.
For series [2], the system named is Staphylococcus aureus. Briefly: Antibacterial activity against methicillin sensitive Staphylococcus aureus ATCC 33591. The series is classed as functional.
Series [3] relates to Staphylococcus aureus. Description: Antibacterial activity against methicillin sensitive Staphylococcus aureus 15. The series is classed as functional.
Series [4] has as its system Staphylococcus aureus. Briefly: Antibacterial activity against vancomycin intermediate and methicillin resistant Staphylococcus aureus ATCC 700699. The series is classed as functional.
In series [5] the test system is Staphylococcus aureus. Briefly: Antibacterial activity against methicillin resistant Staphylococcus aureus 20-11. The series is classed as functional.
Series [6] relates to Enterococcus faecium. Briefly: Antibacterial activity against Vanomycin-resistant Enterococcus faecium ATCC 51559. The series is classed as functional.
The subject of series [7] is Enterococcus faecium. Description: Antibacterial activity against Vanomycin-resistant Enterococcus faecium 15-6. The series is classed as functional.
The subject of series [8] is Staphylococcus aureus. Description: Antibacterial activity against methicillin resistant Staphylococcus aureus ATCC 43300. Type of series: functional.
The nature of series [9]: Cytotoxicity against human HeLa cells by SRB assay. The series is classed as toxicity, cell-based.
Series [10] relates to Staphylococcus epidermidis. Briefly: Antibacterial activity against methicillin sensitive Staphylococcus epidermidis 17-13. The series is classed as functional.
In series [11] the test system is Staphylococcus epidermidis. Briefly: Antibacterial activity against methicillin resistant Staphylococcus epidermidis 19-1. The series is classed as functional.
For series [12], the system named is Staphylococcus epidermidis. Description: Antibacterial activity against methicillin sensitive Staphylococcus epidermidis ATCC 12228. The series is classed as functional.
In series [13] the test system is Enterococcus faecalis. Briefly: Antibacterial activity against Vanomycin-resistant Enterococcus faecalis ATCC 51299. Type of series: functional.
The subject of series [14] is Enterococcus faecium. Briefly: Antibacterial activity against Vanomycin-resistant Enterococcus faecium ATCC 700221. Type of series: functional.
For series [15], the system named is Staphylococcus aureus. Briefly: Antibacterial activity against methicillin sensitive Staphylococcus aureus ATCC 29213. Type of series: functional.
The subject of series [16] is Staphylococcus epidermidis. Briefly: Antibacterial activity against methicillin resistant Staphylococcus epidermidis 19-2. The series is classed as functional.
Series [17] deals with Staphylococcus aureus. Briefly: Antibacterial activity against vancomycin intermediate and methicillin resistant Staphylococcus aureus ATCC 700698. Type of series: functional.
The test system of series [18] is Enterococcus faecalis. Briefly: Antibacterial activity against Vanomycin-resistant Enterococcus faecalis ATCC 51575. The series is classed as functional.
Series [19] concerns Staphylococcus aureus. Description: Antibacterial activity against methicillin sensitive Staphylococcus aureus 20-12. The series is classed as functional.
The nature of series [20]: Cytotoxicity against human HepG2 cells by SRB assay. The series is classed as toxicity, cell-based.

≈ marks a conversion by molar mass, not a printed value. Calls of active or inactive are those of the source. No cut-off for these calls is given here.

On to `CNC(=O)c1cc(Oc2ccc(NC(=O)Nc3ccc(Cl)c(C(F)(F)F)c3)cc2)ccn1` [SORAFENIB], for which the MIC is 17.2 µM (≈ 8 µg/mL) in [1]; 8.61 µM (≈ 4 µg/mL) in [2]; 4.3 µM (≈ 2 µg/mL) in series [3]; 4.3 µM (≈ 2 µg/mL) in [4]; 8.61 µM (≈ 4 µg/mL) in series [5]; 275 µM (≈ 128 µg/mL) in series [6]. In addition, the MIC was determined as 275 µM (≈ 128 µg/mL) in series [7]; 17.2 µM (≈ 8 µg/mL) in series [8]; 8.61 µM (≈ 4 µg/mL) in series [10]; 4.3 µM (≈ 2 µg/mL) in series [11]; 4.3 µM (≈ 2 µg/mL) in series [12]; 275 µM (≈ 128 µg/mL) in series [13]. Moreover, the MIC was 275 µM (≈ 128 µg/mL) in [14]; 8.61 µM (≈ 4 µg/mL) in [15]; 4.3 µM (≈ 2 µg/mL) in series [16]; 17.2 µM (≈ 8 µg/mL) in [17]; 275 µM (≈ 128 µg/mL) in series [18]; 8.61 µM (≈ 4 µg/mL) in series [19]. The concentration for half-maximal inhibition (IC50) in [9] came out at 3.31 µM.

For the compound `O=C(Nc1ccc(Cl)c(F)c1)Nc1ccc(Cl)c(C(F)(F)F)c1`, the MIC in [1] stood at 2.72 µM (≈ 0.999 µg/mL); in series [2] it was 1.36 µM (≈ 0.499 µg/mL); in [3] it was 2.72 µM (≈ 0.999 µg/mL); in [4], 1.36 µM (≈ 0.499 µg/mL); in [5], 2.72 µM (≈ 0.999 µg/mL); in series [6], 10.9 µM (≈ 4 µg/mL). In addition, the MIC was found to be 10.9 µM (≈ 4 µg/mL) in [7]; 2.72 µM (≈ 0.999 µg/mL) in series [8]; 2.72 µM (≈ 0.999 µg/mL) in [10]; 1.36 µM (≈ 0.499 µg/mL) in [11]; 2.72 µM (≈ 0.999 µg/mL) in series [12]; 21.8 µM (≈ 8 µg/mL) in series [13]. Also, the MIC in series [14] stood at 5.45 µM (≈ 2 µg/mL); in series [15], 2.72 µM (≈ 0.999 µg/mL); in series [16] it was 1.36 µM (≈ 0.499 µg/mL); in series [17] it was 2.72 µM (≈ 0.999 µg/mL); in [18], 10.9 µM (≈ 4 µg/mL); in series [19] it was 2.72 µM (≈ 0.999 µg/mL).

With `O=C(Nc1ccc(Cl)c(C(F)(F)F)c1)Nc1cc(Cl)c(F)cc1F`, the minimal inhibitory concentration (MIC) in series [1] is 2.6 µM (≈ 1 µg/mL); in series [2] it was 1.3 µM (≈ 0.501 µg/mL); in series [3] it was 1.3 µM (≈ 0.501 µg/mL); in [4] it was 2.6 µM (≈ 1 µg/mL); in series [5] it was 2.6 µM (≈ 1 µg/mL); in [6] it was 5.19 µM (≈ 2 µg/mL). The minimum inhibitory concentration (MIC) came to 5.19 µM (≈ 2 µg/mL) in [7]; 2.6 µM (≈ 1 µg/mL) in series [8]; 2.6 µM (≈ 1 µg/mL) in series [10]; 2.6 µM (≈ 1 µg/mL) in series [11]; 2.6 µM (≈ 1 µg/mL) in [12]; 20.8 µM (≈ 8 µg/mL) in series [13]. For the same compound, the MIC in [14] is 5.19 µM (≈ 2 µg/mL); in [15], 2.6 µM (≈ 1 µg/mL); in series [16], 1.3 µM (≈ 0.501 µg/mL); in series [17], 2.6 µM (≈ 1 µg/mL); in series [18] it was 10.4 µM (≈ 4 µg/mL); in series [19], 2.6 µM (≈ 1 µg/mL).

For `C[C@H]1COc2c(N3CCN(C)CC3)c(F)cc3c(=O)c(C(=O)O)cn1c23` [LEVOFLOXACIN], the MIC in [1] was 177 µM (≈ 64 µg/mL); in series [2], 0.69 µM (≈ 0.249 µg/mL); in series [3], 0.69 µM (≈ 0.249 µg/mL); in series [4], 22.1 µM (≈ 8 µg/mL); in series [5], 1.38 µM (≈ 0.499 µg/mL); in series [6] it was 88.5 µM (≈ 32 µg/mL). Further, the MIC was 177 µM (≈ 64 µg/mL) in series [7]; 1.38 µM (≈ 0.499 µg/mL) in [8]; 0.69 µM (≈ 0.249 µg/mL) in [10]; 11.1 µM (≈ 4 µg/mL) in series [11]; 0.69 µM (≈ 0.249 µg/mL) in series [12]; 1.38 µM (≈ 0.499 µg/mL) in series [13]. Also, the MIC in series [14] turned out to be 177 µM (≈ 64 µg/mL); in [15] it was 0.69 µM (≈ 0.249 µg/mL); in series [16] it was 11.1 µM (≈ 4 µg/mL); in [17], 22.1 µM (≈ 8 µg/mL); in series [18] it was 2.77 µM (≈ 1 µg/mL); in [19], 1.38 µM (≈ 0.499 µg/mL).

For `O=C(Nc1ccc(OC(F)(F)F)cc1)N1CCN(c2ccc(Cl)c(C(F)(F)F)c2)C1=O`, the MIC result in [1], in series [2], in series [3], in [4], in series [5] and in series [8] was “inactive” each time. Besides, the MIC entry in [10], in series [11], in series [12], in series [15], in [16] and in series [17] was “inactive” throughout. Further, the MIC result in [19] was “inactive”. Moreover, the IC50 in [9] and in [20] was 100 µM throughout.
